The values that follow come from US12692491B2, “Nucleic acid complexes for screening barcoded compounds” (Children's Medical Center Corporation, priority 2015, dated 2026).

In assay [1] the target is T1, streptavidin (Streptomyces avidinii, UniProt P22629).
T1 construct: purchased Rockland
The experiment in a line: Biotin-streptavidin nanoswitch on-rate and off-rate experiments. The assay is classed as binding. Here is the method:
This construct used biotinylated versions of two oligonucleotides (var 4 and var 8), which were used in 4× molar excess to the scaffold, while all other oligonucleotides were used in a 10× molar excess. […] The final DNA construct was then diluted 100× from its original concentration of ~16 nM (to 160 pM), and mixed in equal volumes with streptavidin (Rockland) at 6 nM nominal concentration to form the loops, yielding final nominal concentrations of ~80 pM and 3 nM, respectively.
The 25° C. experiment was performed at room temperature, the 4° C. experiment was performed in a cold room, and the 37° C. and 50° C. experiments were performed using a thermal cycler. […] Actual concentrations used to determine the on-rates were measured using spectrophotometry and a HABA assay to determine streptavidin activity.
Off-rate measurements were performed by forming looped construct as described above, and letting the solution sit for at least 24 hours to allow the system to reach equilibrium. […] The 4° C. condition was done in a refrigerator, the 25° C. sample was done in a water bath, and the 37° C. and 50° C. temperatures were done in a thermal cycler. To run all the samples on a single gel, the quenching times were determined relative to the predetermined gel running time.
We additionally used Eyring analysis to fit the temperature dependence of the kinetic rates: […]

The target of assay [2] is T1, streptavidin. The assay can be described thus: Desthiobiotin-streptavidin nanoswitch off-rate experiments. The assay is classed as binding. Here is the method:
Desthiobiotin experiments were conducted in a similar manner as the biotin experiments with slight modifications. […] The off-rate of the desthiobiotin interaction is much faster than the typical 100 minute gel run time. Noting that once a loop opens in the gel, the reptation of the DNA prevents the loop from closing again, we ran samples for different amounts of time in the gel at 15 V/cm and 4° C. and quantified the fraction looped as a function of running time (Appendix A—Supplementary FIG. 5). In addition to allowing the determination of the desthiobiotin-streptavidin off rate, this gel also allowed us to determine the minimum amount of time required to achieve separation of the looped and unlooped bands in the gel. This enabled the use of the standard quenching technique for measuring desthiobiotin off-rates as described in the previous section; these gels were run at 15 V/cm for 10 minutes in pre-chilled electrophoresis buffer.

Each structure is given as a SMILES string.

T1 sequence (P22629 25-183): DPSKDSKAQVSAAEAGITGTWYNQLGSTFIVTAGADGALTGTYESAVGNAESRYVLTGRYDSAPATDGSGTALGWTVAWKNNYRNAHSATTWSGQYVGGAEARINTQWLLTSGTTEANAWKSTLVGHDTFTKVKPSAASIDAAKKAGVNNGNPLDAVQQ

Consider `O=C(O)CCCC[C@@H]1SC[C@@H]2NC(=O)N[C@@H]21` [biotin], for which the on-rate in assay [1] (150 mM salt, room temperature) was 4.0±0.7×10^6 M^−1s^−1. Besides, the “equilibrium enthalpy change ΔH” value in assay [1] (calculated from on-rate and off-rate measurements) was 26.01 ± 0.05 kcal/mol. For the same compound, the dissociation time in assay [1] (physiological salt conditions and 25° C.) is 9.7 ± 0.4 days.
`C[C@@H]1NC(=O)N[C@@H]1CCCCCC(=O)O` [desthiobiotin]: the values for the off-rate of streptavidin-desthiobiotin in assay [2] (4° C.) and in assay [2] (room temperature) were 35.3 ± 7.5 min and 8.6 ± 1.2 min, respectively.
